Key:
Test in all cases: relative viability (nuclei count vs DMSO), 5 days (fraction); higher = more cells survive
[1] = compound: C1COCCN1C2=NC(=NC3=C2OC4=C3C=CC=N4)C5=CC(=CC=C5)NC(=O)C6=CN=C(C=C6)N + C[C@@H](Oc1cc(-c2cnn(C3CCNCC3)c2)cnc1N)c1c(Cl)ccc(F)c1Cl [Crizotinib] (partner 1 µM)
How it was run: (§1)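 Relative viability was taken as the ratio of nuclei in treated wells to nuclei in vehicle wells. Lung cancer cell lines in 1536-well plates received compounds by pin tool one day after seeding, either one drug alone or a fixed anchor-drug dose plus five library-drug doses (not always all listed) in √10 steps. Nuclei were counted on 4× images after 5 days of treatment, and values are medians of duplicate plates.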

SGI-1776 + Palbociclib = compound: CN1CCC(CNc2ccc3ncc(-c4cccc(OC(F)(F)F)c4)n3n2)CC1 [SGI-1776] + CC(=O)c1c(C)c2cnc(Nc3ccc(N4CCNCC4)cn3)nc2n(C2CCCC2)c1=O [Palbociclib] (partner 0.5 µM)
How it was run: as §1

Entinostat + Vorinostat = compound: Nc1ccccc1NC(=O)c1ccc(CNC(=O)OCc2cccnc2)cc1 [Entinostat] + O=C(CCCCCCC(=O)Nc1ccccc1)NO [Vorinostat] (partner 1 µM)
How it was run: as §1

Cell Line	relative viability ([1]; first compound 0.02 µM)	relative viability ([1]; first compound 0.06325 µM)	relative viability ([1]; first compound 0.2 µM)	relative viability ([1]; first compound 0.6325 µM)	relative viability ([1]; first compound 2 µM)	relative viability (SGI-1776 + Palbociclib; first compound 0.08 µM)	relative viability (SGI-1776 + Palbociclib; first compound 0.8 µM)	relative viability (SGI-1776 + Palbociclib; first compound 2.53 µM)	relative viability (SGI-1776 + Palbociclib; first compound 8 µM)	relative viability (Entinostat + Vorinostat; first compound 0.02 µM)	relative viability (Entinostat + Vorinostat; first compound 0.06325 µM)	relative viability (Entinostat + Vorinostat; first compound 0.2 µM)	relative viability (Entinostat + Vorinostat; first compound 0.6325 µM)	relative viability (Entinostat + Vorinostat; first compound 2 µM)
COR-L 105	0.792	0.722	0.567	0.752	0.481	0.477	0.388	0.396	0.355	0.993	0.986	0.851	0.541	0.356
NCI-H2009	0.984	1.11	0.927	1.07	0.72	0.251	0.151	0.166	0.174	0.664	0.72	0.762	0.581	0.416
NCI-H1563	0.778	0.833	0.729	0.762	0.728	–	–	–	–	–	–	–	–	–
PC-14	1.01	1.07	0.865	0.784	0.396	0.573	0.448	0.436	0.0558	0.689	0.668	0.615	0.147	0.0636
NCI-H1703	0.357	0.731	0.506	0.401	0.416	–	–	–	–	–	–	–	–	–
NCI-H1944	1.23	1.34	1.09	1.25	0.887	0.346	0.312	0.303	0.279	0.59	0.576	0.452	0.307	0.246
NCI-H2085	0.971	0.947	0.817	0.887	0.522	0.491	0.482	0.468	0.444	0.731	0.763	0.788	0.608	0.419
EBC-1	0.209	0.196	0.197	0.168	0.172	–	–	–	–	–	–	–	–	–
NCI-H1792	1.2	0.946	1.01	0.767	0.382	0.659	0.626	0.59	0.615	–	–	–	–	–
NCI-H2347	0.603	0.678	0.744	0.759	0.649	0.414	0.455	0.44	0.426	0.368	0.643	0.528	0.303	0.264
ABC-1	1.02	1.29	0.93	1.33	0.666	0.661	0.98	0.501	0.431	1.34	1.35	0.854	0.759	0.511
201T	1.02	1.05	1.03	1.01	0.736	0.36	0.346	0.342	0.327	0.995	1.07	0.95	0.691	0.491
NCI-H1755	0.969	0.978	0.811	0.773	0.34	0.461	0.444	0.438	0.438	0.762	0.728	0.769	0.48	0.374
NCI-H596	1.1	0.983	0.99	0.942	0.746	–	–	–	–	0.603	0.694	0.708	0.589	0.41
NCI-H1651	0.835	0.894	0.854	0.865	0.671	0.504	0.497	0.522	0.439	0.599	0.645	0.449	0.496	0.314
NCI-H1437	0.95	1.11	0.827	0.964	0.401	0.311	0.315	0.257	0.261	0.612	0.466	0.383	0.261	0.254
NCI-H1975	0.993	1.15	0.929	1.07	0.418	0.684	0.563	0.568	0.526	0.692	0.651	0.509	0.347	0.211
BEN	0.928	0.841	0.932	0.821	0.504	0.447	0.476	0.457	0.47	0.632	0.571	0.553	0.459	0.384
NCI-H322M	0.854	0.991	0.879	0.934	0.657	0.515	0.508	0.476	0.451	0.967	0.975	0.981	0.876	0.808
SK-MES-1	1.09	1.11	0.975	0.884	0.7	0.379	0.315	0.327	0.241	1.02	1.03	1.26	0.954	0.743
HOP-62	1.08	1.14	0.714	0.695	0.65	0.548	0.428	0.423	0.379	0.565	0.534	0.494	0.228	0.132
HCC-366	0.594	0.808	0.575	0.629	0.327	0.395	0.476	0.368	0.33	0.338	0.239	0.209	0.0651	0.0386
NCI-H1648	–	–	–	–	–	0.286	0.327	0.226	0.319	0.65	0.336	0.345	0.342	0.208
A549	1	0.903	0.66	0.764	0.302	–	–	–	–	–	–	–	–	–
NCI-H1299	0.942	0.95	0.937	0.958	0.669	–	–	–	–	–	–	–	–	–
NCI-H1793	–	–	–	–	–	0.353	0.335	0.311	0.298	0.78	0.854	0.801	0.439	0.29
NCI-H1395	–	–	–	–	–	0.615	0.588	0.611	0.457	1.05	0.96	0.829	0.65	0.463
NCI-H522	–	–	–	–	–	1.22	1.25	0.953	0.731	0.794	0.944	0.863	0.741	0.428
Calu-6	1.1	0.876	0.758	0.822	0.454	–	–	–	–	–	–	–	–	–

Source: the supplement of paper PMC10307832
